The test system of assay [1] is FIH. As to conditions: read-out: KM (Michaelis constant for αKG), FIH; cited from earlier work.
Assay [2] addresses Recombinant human FIH-1 (Homo sapiens, UniProt Q9NWT6). Kind of assay: FIH dose-response activity assay. The class given is biochemical.
For assay [3], the target named is Recombinant human PHD2 (Homo sapiens, UniProt Q9GZT9). Kind of assay: PHD2 dose-response activity assay. The class given is biochemical. As to conditions: sub-saturating αKG.
The target of assay [4] is FIH. Conditions: cited from earlier work.

Read-outs that look alike come from different tables or passages of the source.

Chain of Recombinant human FIH-1 (Q9NWT6 whole entry): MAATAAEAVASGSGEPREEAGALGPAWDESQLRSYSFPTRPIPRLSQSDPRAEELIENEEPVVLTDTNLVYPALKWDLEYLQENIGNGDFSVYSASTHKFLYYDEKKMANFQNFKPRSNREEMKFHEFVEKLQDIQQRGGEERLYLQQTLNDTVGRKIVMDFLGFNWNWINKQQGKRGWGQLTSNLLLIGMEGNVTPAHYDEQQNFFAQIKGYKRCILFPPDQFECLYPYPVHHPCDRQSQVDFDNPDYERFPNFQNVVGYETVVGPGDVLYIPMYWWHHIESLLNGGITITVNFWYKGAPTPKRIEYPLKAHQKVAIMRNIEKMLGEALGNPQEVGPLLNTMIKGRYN
Chain of Recombinant human PHD2 (Q9GZT9 177-426): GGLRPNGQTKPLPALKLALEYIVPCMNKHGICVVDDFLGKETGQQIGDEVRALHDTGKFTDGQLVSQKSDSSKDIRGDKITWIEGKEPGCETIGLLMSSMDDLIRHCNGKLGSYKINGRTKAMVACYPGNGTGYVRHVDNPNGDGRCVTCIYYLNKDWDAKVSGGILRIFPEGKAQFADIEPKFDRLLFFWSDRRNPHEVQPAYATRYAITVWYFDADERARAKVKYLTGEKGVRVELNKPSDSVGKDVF

`O=C(O)CCC(=O)C(=O)O` [αKG, alpha-ketoglutarate]: the Km – broadly, the concentration of substrate that gives half-maximal velocity – in assay [1] was 22 ± 6 µM.

In the case of `O=[N+]([O-])c1ccc(O)c(O)c1` [Compound 8, 4-Nitrocatechol], the half-maximal inhibitory concentration (IC50) (in general, the midpoint of a concentration-inhibition curve) in assay [2] was 10 µM.

Turning to `Oc1cccnc1O` [Compound 3, 2,3-Dihydroxypyridine], the IC50 in assay [2] came out at 75 µM.

With `Cc1ccc(O)c(O)c1` [Compound 9, 4-Methylcatechol], in assay [2], the IC50 came to 50 µM.

Regarding `Cc1c(O)c(=O)ccn1C` [Compound 7, 3-Hydroxy-1,2-dimethyl-4(1H)-pyridinone], the IC50 in assay [2] amounted to 30 µM.

For the compound `Cc1ccc(C#N)c(=O)[nH]1` [Compound 1, 3-Cyano-6-methyl-2(H) pyridinone], the “inhibition toward PHD2” value in assay [3] was “no inhibition”. The “inhibition toward FIH” value in assay [2] (dose response, sub-saturating αKG) is “no inhibition”. Besides, in assay [2] (read-out: FIH IC50, 10 µM αKG, 0.5 µM FIH, 50 mM HEPES pH 7.50, 37.0 °C), the IC50 was greater than 1000 µM.

Take `CC(C)(C)c1ccc(O)c(O)c1` [Compound 10, 4-tert-Butylcatechol]: in assay [2], the half-maximal inhibitory concentration (IC50) was 120 µM.

In the case of `O=c1cc(CO)occ1O` [Compound 4, 5-Hydroxy-2-hydroxymethyl-4-pyrone], the IC50 in assay [2] came to 170 µM.

Regarding N-oxalyl-D-phenylalanine, the Ki (in general, the equilibrium dissociation constant of an inhibitor or competing ligand from its target) in assay [4] is 90 µM.

With `Cc1occc(=O)c1O` [Compound 6, 3-Hydroxy-2-methyl-4-pyrone], the IC50 in assay [2] turned out to be 70 µM.

On to `O=C(O)c1cc(=O)c(O)co1` [Compound 5, 5-Hydroxy-4-oxo-4H-pyran-2-carboxylic acid], for which the IC50 in assay [2] was found to be 50 µM.
